For 20 compounds, IC50 results are on record in patent publication US20140005163A1 (NOVARTIS AG, priority 2010, published 2014).

A word on the IC50: it is the point on the concentration scale where inhibition reaches its midpoint.

The subject of assay [1] is PKB Ser473 phosphorylation in Rat1-myr-HA-p110 alpha cells. The assay is described as follows: Reverse protein array assay, PKB Ser473 phosphorylation in Rat1-myr-p110 alpha cells. It counts as cell-based. The note with it: 0.5 h, pAkt Ser473, 30 minutes compound incubation, read-out: p-PKB IC50. The method in brief:
(§1)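 Rat1 cells expressing myristoylated HA-tagged p110 alpha, beta or delta were plated for at least 20 h, then exposed to 8-step serial compound dilutions (0.2% DMSO final) for 30 min at 37 °C. Lysates were spotted at four dilutions on protein microarrays, and relative fluorescence intensity of phospho-Ser473 PKB was calculated.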

Assay [2] deals with PKB Ser473 phosphorylation in Rat1-myr-HA-p110 delta cells. The assay is described as follows: Reverse protein array assay, PKB Ser473 phosphorylation in Rat1-myr-p110 delta cells. The note with it: read-out: p-PKB IC50. It counts as cell-based. The method in brief: as §1
A further assay deals with T1, PI3K alpha (Homo sapiens, UniProt P42336).
T1 construct: p85(iSH2) fusion partner (see partner chain) (N); His tag (C); made in house; host or cells: baculovirus; Tn5 (Trichoplusia ni) or TiniPro insect cells
T1 sequence (P42336 with tags, fused parts or gaps limits assumed): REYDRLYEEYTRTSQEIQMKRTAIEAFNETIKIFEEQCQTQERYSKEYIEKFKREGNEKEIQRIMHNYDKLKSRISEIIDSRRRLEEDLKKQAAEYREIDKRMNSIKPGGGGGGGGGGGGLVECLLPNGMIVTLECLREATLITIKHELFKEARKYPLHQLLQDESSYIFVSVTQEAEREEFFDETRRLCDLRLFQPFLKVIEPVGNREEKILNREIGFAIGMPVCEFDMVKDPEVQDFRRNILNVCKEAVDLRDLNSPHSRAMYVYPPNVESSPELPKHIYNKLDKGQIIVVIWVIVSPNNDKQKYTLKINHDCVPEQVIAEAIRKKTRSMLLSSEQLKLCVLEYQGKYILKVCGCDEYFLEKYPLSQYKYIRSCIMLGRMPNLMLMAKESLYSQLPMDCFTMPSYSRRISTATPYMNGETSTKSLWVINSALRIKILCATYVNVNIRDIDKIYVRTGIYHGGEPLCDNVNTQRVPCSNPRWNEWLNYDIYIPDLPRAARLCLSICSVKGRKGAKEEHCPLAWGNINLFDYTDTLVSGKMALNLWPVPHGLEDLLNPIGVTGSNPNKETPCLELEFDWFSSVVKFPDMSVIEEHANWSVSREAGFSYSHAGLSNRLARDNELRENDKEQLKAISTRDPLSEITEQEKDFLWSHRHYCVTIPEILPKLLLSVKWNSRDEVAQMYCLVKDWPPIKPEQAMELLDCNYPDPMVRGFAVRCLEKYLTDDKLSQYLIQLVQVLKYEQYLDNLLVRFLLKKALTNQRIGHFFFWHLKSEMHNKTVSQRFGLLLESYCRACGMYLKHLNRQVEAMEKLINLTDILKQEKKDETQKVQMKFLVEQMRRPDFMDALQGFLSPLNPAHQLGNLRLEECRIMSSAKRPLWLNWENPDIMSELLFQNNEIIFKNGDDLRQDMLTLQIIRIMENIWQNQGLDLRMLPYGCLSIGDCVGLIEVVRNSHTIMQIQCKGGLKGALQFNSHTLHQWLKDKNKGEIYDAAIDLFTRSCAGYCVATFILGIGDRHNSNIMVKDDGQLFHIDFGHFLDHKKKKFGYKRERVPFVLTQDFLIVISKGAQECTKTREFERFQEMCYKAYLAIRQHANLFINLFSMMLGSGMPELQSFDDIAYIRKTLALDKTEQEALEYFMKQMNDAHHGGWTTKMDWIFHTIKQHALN
Description: PI3K alpha kinase assay (Kinase-Glo luminescence). It counts as biochemical. Put shortly: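 Luminescent ATP-depletion assay (Kinase-Glo) with 10 nM PI3Kα and 10 μg/mL phosphatidylinositol as lipid substrate at 1 μM ATP. Incubation lasts 60 min at room temperature.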
(In Kinase-Glo more light means more ATP remaining.)

For assay [3], the system named is S6 Ribosomal Protein phosphorylation Ser235/236 in TSC1 null mouse embryo fibroblast (MEF) cells. Description: Reverse protein array assay, S6 Ribosomal Protein phosphorylation Ser235/236 in TSC1 null MEF cells. To be noted: 1 h, pS6 ribosomal protein Ser235/236, 60 minutes incubation, read-out: p-S6 IC50. The assay is classed as cell-based. Put shortly:
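TSC1−/− MEFs, seeded and held ≥20 h at 37 °C/5% CO2, were exposed to 8-step serial compound dilutions (0.02% DMSO final; DMSO vehicle control) for 60 min at 37 °C. Cells were then lysed on ice for 10 min and lysates spotted onto reverse protein array chips.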

For `Cn1cc(-n2c(=O)n(C)c3cnc4ccc(-c5ccc(CO)nc5)cc4c32)c(Cl)n1` [Example 16.5, 1-(3-chloro-1-methyl-1H-pyrazol-4-yl)-8-(6-hydroxymethyl-pyridin-3-yl)-3-methyl-1,3-dihydro-imidazo[4,5-c]quinolin-2-one], the IC50 in assay [1] worked out at 8 nM; in assay [2], 28 nM; on PI3K alpha, 3 nM; in assay [3], 13 nM.
`CNc1cc(-c2ccc3ncc4c(c3c2)n(-c2cn(C)nc2C)c(=O)n4C)cnc1C` [Example 163, 1-(1,3-Dimethyl-1H-pyrazol-4-yl)-3-methyl-8-(6-methyl-5-methylamino-pyridin-3-yl)-1,3-dihydro-imidazo[4,5-c]quinolin-2-one]: the IC50 in assay [1] was less than 5 nM; in assay [2], 12 nM; on PI3K alpha it was 6 nM; in assay [3], 2 nM.
Regarding `COCCOc1cncc(-c2ccc3ncc4c(c3c2)n(-c2cn(C)nc2Cl)c(=O)n4C)c1` [Example 59.2, 1-(3-Chloro-1-methyl-1H-pyrazol-4-yl)-8-[5-(2-methoxy-ethoxy)-pyridin-3-yl]-3-methyl-1,3-dihydro-imidazo[4,5-c]quinolin-2-one], the IC50 in assay [1] was determined as 12 nM; in assay [2] it was 69 nM; at PI3K alpha, 5 nM; in assay [3], 1 nM.
Take `COc1ccc(-c2ccc3ncc4[nH]c(=O)n(-c5cn(C)nc5C)c4c3c2)cn1` [Example 109, 1-(1,3-Dimethyl-1H-pyrazol-4-yl)-8-(6-methoxy-pyridin-3-yl)-1,3-dihydro-imidazo[4,5-c]quinolin-2-one]: the IC50 in assay [1] is 55 nM; in assay [2] it was 120 nM; on PI3K alpha, 12 nM; in assay [3], 11 nM.
For `Cc1nn(C)cc1-n1c(=O)n(C)c2cnc3ccc(-c4ccc(OCCCO)nc4)cc3c21` [Example 108, 1-(1,3-Dimethyl-1H-pyrazol-4-yl)-8-[6-(3-hydroxy-propoxy)-pyridin-3-yl]-3-methyl-1,3-dihydro-imidazo[4,5-c]quinolin-2-one], the IC50 in assay [1] was 134 nM; in assay [2] it was 401 nM; on PI3K alpha it was 132 nM; in assay [3], 17 nM.
In the case of `CCNc1ncc(-c2ccc3ncc4c(c3c2)n(-c2c(C)nn(C)c2C)c(=O)n4C)cc1COC` [Example 206.2, 8-(6-Ethylamino-5-methoxymethyl-pyridin-3-yl)-3-methyl-1-(1,3,5-trimethyl-1H-pyrazol-4-yl)-1,3-dihydro-imidazo[4,5-c]quinolin-2-one], the IC50 was 126 nM in assay [1], 479 nM in assay [2], 186 nM on PI3K alpha and 77 nM in assay [3].
The like results for `Cc1nn(CC(=O)N2CCC2)cc1-n1c(=O)n(C)c2cnc3ccc(-c4cnc(N5CCCC5)nc4)cc3c21` [Example 247.2, 1-[1-(2-Azetidin-1-yl-2-oxo-ethyl)-3-methyl-1H-pyrazol-4-yl]-3-methyl-8-(2-pyrrolidin-1-yl-pyrimidin-5-yl)-1,3-dihydro-imidazo[4,5-c]quinolin-2-one] were, in that order, 45 nM, 288 nM, 38 nM and 9 nM.
The matching figures for `Cc1nn(C)cc1-n1c(=O)n(C)c2cnc3ccc(-c4ccc(N5CCC5)nc4)cc3c21` [Example 5.1, 8-(6-Azetidin-1-yl-pyridin-3-yl)-1-(1,3-dimethyl-1H-pyrazol-4-yl)-3-methyl-1,3-dihydro-imidazo[4,5-c]quinolin-2-one]: 7 nM, 18 nM, 30 nM and 10 nM.
As to `Cc1nn(C)cc1-n1c(=O)n(C)c2cnc3ccc(-c4ccc(-n5cccn5)cc4)cc3c21` [Example 51.1, 1-(1,3-Dimethyl-1H-pyrazol-4-yl)-3-methyl-8-(4-pyrazol-1-yl-phenyl)-1,3-dihydro-imidazo[4,5-c]quinolin-2-one], the IC50 in assay [1] is less than 5 nM; in assay [2] it was 29 nM; at PI3K alpha, 23 nM; in assay [3] it was 5 nM.
With `CCNc1ncc(-c2ccc3ncc4c(c3c2)n(-c2cn(C)nc2C)c(=O)n4C)cc1COC` [Example 206.1, 1-(1,3-Dimethyl-1H-pyrazol-4-yl)-8-(6-ethylamino-5-methoxymethyl-pyridin-3-yl)-3-methyl-1,3-dihydro-imidazo[4,5-c]quinolin-2-one], the IC50 in assay [1] came to 11 nM; in assay [2] it was 45 nM; at PI3K alpha, 26 nM; in assay [3] it was 3 nM.
Turning to `CCNc1cc(-c2ccc3ncc4c(c3c2)n(-c2cn(C)nc2C)c(=O)n4C)cnc1CO` [Example 155.1, 1-(1,3-Dimethyl-1H-pyrazol-4-yl)-8-(5-ethylamino-6-hydroxymethyl-pyridin-3-yl)-3-methyl-1,3-dihydro-imidazo[4,5-c]quinolin-2-one], the IC50 in assay [1] amounted to 13 nM; in assay [2] it was 19 nM; on PI3K alpha, 13 nM; in assay [3], 2 nM.
As to `CCN(C)c1cc(-c2ccc3ncc4c(c3c2)n(-c2cn(C)nc2C)c(=O)n4C)cnc1C` [Example 165, 1-(1,3-Dimethyl-1H-pyrazol-4-yl)-8-[5-(ethyl-methyl-amino)-6-methyl-pyridin-3-yl]-3-methyl-1,3-dihydro-imidazo[4,5-c]quinolin-2-one], the IC50 in assay [1] came out at 6 nM; in assay [2] it was 8 nM; on PI3K alpha it was 7 nM; in assay [3], 1 nM.
As to `CCOc1cc(-c2ccc3ncc4c(c3c2)n(-c2c(C)nn(CC(=O)N(C)C)c2C)c(=O)n4C)cnc1C` [Example 85.3, 2-{4-[8-(5-Ethoxy-6-methyl-pyridin-3-yl)-3-methyl-2-oxo-2,3-dihydro-imidazo[4,5-c]quinolin-1-yl]-3,5-dimethyl-pyrazol-1-yl}-N,N-dimethyl-acetamide], the IC50 in assay [1] came out at 296 nM; in assay [2], 749 nM; on PI3K alpha it was 34 nM; in assay [3], 111 nM.
Take `CCNc1cc(-c2ccc3ncc4c(c3c2)n(-c2cn(CC)nc2C)c(=O)n4C)cnc1CO` [Example 155.2, 8-(5-Ethylamino-6-hydroxymethyl-pyridin-3-yl)-1-(1-ethyl-3-methyl-1H-pyrazol-4-yl)-3-methyl-1,3-dihydro-imidazo[4,5-c]quinolin-2-one]: the IC50 in assay [1] came to 5 nM; in assay [2], 13 nM; at PI3K alpha, 14 nM; in assay [3], 1 nM.
On to `CCOCc1ncc(-c2ccc3ncc4c(c3c2)n(-c2cn(C)nc2C)c(=O)n4C)cc1OC` [Example 196.2, 1-(1,3-Dimethyl-1H-pyrazol-4-yl)-8-(6-ethoxymethyl-5-methoxy-pyridin-3-yl)-3-methyl-1,3-dihydro-imidazo[4,5-c]quinolin-2-one], for which the IC50 in assay [1] is 129 nM; in assay [2] it was 335 nM; on PI3K alpha it was 175 nM; in assay [3] it was 125 nM.
In the case of `COc1ccc(-c2ccc3ncc4c(c3c2)n(-c2cn(C)nc2C)c(=O)n4C)cn1` [Example 2.5, 1-(1,3-Dimethyl-1H-pyrazol-4-yl)-8-(6-methoxy-pyridin-3-yl)-3-methyl-1,3-dihydro-imidazo[4,5-c]quinolin-2-one], the IC50 is 18 nM in assay [1], 36 nM in assay [2], 17 nM on PI3K alpha and 10 nM in assay [3].
The like results for `COc1ncc(-c2ccc3ncc4c(c3c2)n(-c2cn(C)nc2C)c(=O)n4C)cc1N` [Example 127, 8-(5-Amino-6-methoxy-pyridin-3-yl)-1-(1,3-dimethyl-1H-pyrazol-4-yl)-3-methyl-1,3-dihydro-imidazo[4,5-c]quinolin-2-one] were, in that order, 5 nM, 18 nM, 20 nM and 3 nM.
The like results for `CCn1cc(-n2c(=O)n(C)c3cnc4ccc(-c5ccc(OC)c(OC)c5)cc4c32)c(C)n1` [Example 1.6, 8-(3,4-Dimethoxy-phenyl)-1-(1-ethyl-3-methyl-1H-pyrazol-4-yl)-3-methyl-1,3-dihydro-imidazo[4,5-c]quinolin-2-one] were, in that order, 10 nM, 30 nM, 8 nM and less than 5 nM.
For `Cc1nn(C)cc1-n1c(=O)n(C)c2cnc3ccc(-c4cncc(NC5CCC5)c4)cc3c21` [Example 172, 8-(5-Cyclobutylamino-pyridin-3-yl)-1-(1,3-dimethyl-1H-pyrazol-4-yl)-3-methyl-1,3-dihydro-imidazo[4,5-c]quinolin-2-one], the IC50 in assay [1] stood at 9 nM; in assay [2], 15 nM; on PI3K alpha, 39 nM; in assay [3], 1 nM.
As to `CCOc1ccc(-c2ccc3ncc4c(c3c2)n(-c2cn(CC(=O)N(C)C)nc2C)c(=O)n4C)cn1` [Example 3.9, 2-{4-[8-(6-Ethoxy-pyridin-3-yl)-3-methyl-2-oxo-2,3-dihydro-imidazo[4,5-c]quinolin-1-yl]-3-methyl-pyrazol-1-yl}-N,N-dimethyl-acetamide], the IC50 in assay [1] turned out to be 10 nM; in assay [2], 50 nM; on PI3K alpha it was 21 nM; in assay [3], 5 nM.
